Results published in patent publication US8334253B2, “Cosmetic and dermatological formulations of MNTF peptides” (Dermacare Neuroscience Institute, priority 2008, dated 2012).

Tested on: hyaluronic acid levels in adult human dermal fibroblast (aHDF) conditioned media
Assay: Hyaluronic acid in fibroblast-conditioned medium (HA-ELISA)
Assay type: cell-based
Conditions: positive control, 5 ng/ml, 96 h
Source text: Hyaluronic acid (hyaluronan, HA), a naturally occurring carbohydrate polymer is a key component of connective, epithelial and neural tissues. HA participates in hydrodynamics, movement and proliferation of cells. This test was designed to determine whether a sample of palmitylated and non-palmitylated MNTF hexapeptide has an effect on hyaluronic acid levels in the adult human dermal fibroblast (aHDF) conditioned media.
Adult HDF (facial, passage 2, Cell Applications, San Diego, Calif. cat.#106-05A lot#1392) were plated in high glucose phosphate-free DMEM supplemented with 5% cosmic serum from Hyclone, Utah) at 6,000 cells per well and test materials were added the following day. Test materials were: Pal-Hexapeptide (palmitylated SEQ ID NO:2 as a lyophilized powder labeled APC 341055, lot V08150A1, received from DermaCare Neuroscience Institute), type I sterile water (negative control) and basic fibroblast growth factor (bFGF, positive control). Pal-Hexapeptide was dissolved in water at 20 mg/ml. Final concentrations tested were: 400, 200, 100, 50 and 25 ug/ml for DNP and 5 ng/ml for bFGF (plate 507). After 96 h, cell culture conditioned media were collected and 100 ul aliquotes were used for the HA assay. HA assay was performed using Hyaluronan Enzyme-Linked Immunosorbent Assay Kit (HA-ELISA, cat. #K-1200) from Echelon (Salt Lake City, Utah). The HA output was measured by following the generation of a chromophoric reaction product in 96 well plate, with the use of a BioRad microplate reader at 410 nm and the effect of the test materials was determined using the formula: Absorbance 410 (sample)/Absorbance 410 (Zero HA)×100.
Adult HDF (facial, passage 2, Cell Applications, San Diego, Calif. cat.#106-05A lot#1392) were plated in high glucose phosphate-free DMEM supplemented with 5% cosmic serum from Hyclone, Utah) at 6,000 cells per well and test materials were added the following day. Test materials were: hexapeptide (SEQ ID NO:2 (non-palmitylated), lyophilized powder lot #D294, received from DermaCare Neuroscience Institute), type I sterile water (negative control) and basic fibroblast growth factor (bFGF, positive control). Pal-Hexapeptide was dissolved in water at 20 mg/ml. Final concentrations tested were: 2000, 1000, 500 and 250 ug/ml for hexapeptide and 5 ng/ml for bFGF (plate 507). After 96 h, cell culture conditioned media were collected and 100 ul aliquotes were used for the HA assay. HA assay was performed using Hyaluronan Enzyme-Linked Immunosorbent Assay Kit (HA-ELISA, cat. #K-1200) from Echelon (Salt Lake City, Utah). The HA output was measured by following the generation of a chromophoric reaction product in 96 well plate, with the use of a BioRad microplate reader at 410 nm and the effect of the test materials was determined using the formula: Absorbance 410 (sample)/Absorbance 410 (Zero HA)×100.

“basic fibroblast growth factor [bFGF, reference compound]” was tested, and the “stimulation of hyaluronic acid in the fibroblast-conditioned medium” value was “moderately stimulatory activity”.
